The record followed here is article PMC12073635, “Synthesis of Tricyclic and Tetracyclic Lactone Derivatives of Thieno[2,3-b]pyrazine or Thieno[2,3-b]quinoline: Preliminary Antitumor and Antiparasitic Activity Evaluation” (Molecules, 2025).

The term CC50 denotes the concentration at which the toxic effect on the cells reaches its halfway point.

The nature of the data set: MTT cytotoxicity in THP-1-derived macrophages. Format: cell-based, human. The conditions noted are these: human, THP-1-derived macrophages (PMA-differentiated); MTT, 72 h, tested 100 to 12.5 μM; read-out: CC50 Interval in THP-1-Derived Macrophages. An outline of the steps:
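THP-1 cells differentiated into macrophages with 40 ng/mL PMA for 24 h plus 24 h in fresh medium, then exposed to compounds at 100 to 12.5 μM for 72 h at 37 °C, 5% CO2. Viability by MTT (0.5 mg/mL, 4 h), absorbance 570 nm; CC50 by non-linear regression, at least three independent experiments.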

For the compound `COC(=O)c1sc2nccnc2c1C#Cc1ccccn1` [Compound 2f, Methyl 7-(pyridin-2-ylethynyl)thieno[2,3-b]pyrazine-6-carboxylate], the CC50 at 72 h fell in the range of 25 to 100 µM.
